We go through 2 molecules from patent publication US9120746B2, “Crystalline form of a 3-phenoxymethylpyrrolidine compound” (Theravance Biopharma R&D IP, LLC, priority 2010, dated 2015).

Counter-ions that a name gives are not always drawn. Like-named read-outs stand apart in the source and are kept apart here.

Data set [1] is described as follows: Deliquescence on exposure to atmospheric moisture. The note with it: exposed to atmospheric moisture. The class given is physicochemical.
A short description of the next data set: Aqueous solubility. As to conditions: read-out: SOLUBILITY CONCENTRATION
It is filed as physicochemical. The text has this: The crystalline hydrochloride salt of the invention has very good aqueous solubility in a wide pH range: […]

Data set [2] in a line: Thermal analysis (DSC, TGA). It is filed as physicochemical. The protocol:
Differential scanning calorimetry (DSC) was performed using a TA Instruments
Model Q-100 module with a Thermal Analyst controller. Data were collected and analyzed using TA Instruments Thermal Solutions software. A 1.22 mg sample of the crystalline hydrochloride salt of the invention was accurately weighed into a covered aluminum pan. After a 5 minute isothermal equilibration period at 22° C., the sample was heated using a linear heating ramp of 10° C./min from 22° C. to 250° C.

A short description of data set [3]: Solution stability (HPLC peak area). It is filed as physicochemical. As to conditions: for Change in HPLC Peak Area: 10 μm/mL, 3 days at 40° C.
Data set [4] can be described thus: Dynamic moisture sorption (DMS) assessment. As to conditions: exposed to up to 85% relative humidity, 25° C. The class given is physicochemical. The method, then: A dynamic moisture sorption (DMS) assessment (also known as a moisture sorption-desorption profile) was performed for the crystalline hydrochloride salt of the invention using a VTI atmospheric microbalance, SGA-100 system (VTI Corp., Hialeah, Fla. 33016). A sample size of approximately 2.73 mg was used and the humidity was set at the ambient value at the start of the analysis. The DMS analysis consisted of a scan rate of 5% relative humidity/step over the full humidity range of 2% relative humidity to 90% relative humidity. The DMS run was performed isothermally at 25° C.

Data set [5] has as its target T1, hNET (Homo sapiens, UniProt P23975).
T1 construct: expressed in transfected cells; host or cells: HEK-293 derived cell line, stably transfected
The data set can be described thus: hNET neurotransmitter uptake assay (3H-NE). It is filed as cell-based. As to conditions: 3H-NE 50 nM, HEK-293 hNET cells; read-out: norepinephrine reuptake inhibition pIC50 (converted). The method, then: (§1) Neurotransmitter uptake assays were used to measure inhibition of ^3H-serotonin (^3H-5-HT), ^3H-norepinephrine (^3H-NE), and ^3H-dopamine (^3H-DA) uptake into cells expressing the respective transporter (hSERT, hNET or hDAT) in order to determine the pIC50 values of test compounds at the transporters.
(§2) HEK-293 derived cell lines stably-transfected with hSERT, hNET, or hDAT, respectively, were grown in DMEM medium supplemented with 10% dialyzed FBS (for hSERT) or FBS (for hNET and hDAT), 100 μg/ml penicillin, 100 μg/ml streptomycin, 2 mM L-glutamine and 250 μg/ml of the aminoglycoside antibiotic G418 (for hSERT and hNET) or 800 ug/ml (for hDAT), in a 5% CO2 humidified incubator at 37° C. When cultures reached 80% confluence, the cells were washed thoroughly in PBS (without Ca^2+ and Mg^2+) and lifted with 5 mM EDTA in PBS. […]
(§3) Neurotransmitter uptake assays were performed in a 96-well assay plate in a total volume of 400 μl assay buffer (Krebs-Ringer bicarbonate buffer containing HEPES (10 mM), CaCl2 (2.2 mM), ascorbic acid (200 μM) and pargyline (200 μM), pH 7.4) with 1.5×10^4 and 2.5×10^4 cells, for SERT, NET, and DAT, respectively. […] Non-specific neurotransmitter uptake was determined in the presence of 2.5 μM duloxetine, 2.5 μM desipramine, or 10 uM GBR-12909 (each in Dilution Buffer) for the hSERT, hNET, or hDAT assays, respectively. […]

In data set [6] the target is T2, hSERT (Homo sapiens, UniProt P31645).
T2 construct: expressed in transfected cells; host or cells: HEK-293 derived cell line, stably transfected
T2 sequence (P31645 whole entry): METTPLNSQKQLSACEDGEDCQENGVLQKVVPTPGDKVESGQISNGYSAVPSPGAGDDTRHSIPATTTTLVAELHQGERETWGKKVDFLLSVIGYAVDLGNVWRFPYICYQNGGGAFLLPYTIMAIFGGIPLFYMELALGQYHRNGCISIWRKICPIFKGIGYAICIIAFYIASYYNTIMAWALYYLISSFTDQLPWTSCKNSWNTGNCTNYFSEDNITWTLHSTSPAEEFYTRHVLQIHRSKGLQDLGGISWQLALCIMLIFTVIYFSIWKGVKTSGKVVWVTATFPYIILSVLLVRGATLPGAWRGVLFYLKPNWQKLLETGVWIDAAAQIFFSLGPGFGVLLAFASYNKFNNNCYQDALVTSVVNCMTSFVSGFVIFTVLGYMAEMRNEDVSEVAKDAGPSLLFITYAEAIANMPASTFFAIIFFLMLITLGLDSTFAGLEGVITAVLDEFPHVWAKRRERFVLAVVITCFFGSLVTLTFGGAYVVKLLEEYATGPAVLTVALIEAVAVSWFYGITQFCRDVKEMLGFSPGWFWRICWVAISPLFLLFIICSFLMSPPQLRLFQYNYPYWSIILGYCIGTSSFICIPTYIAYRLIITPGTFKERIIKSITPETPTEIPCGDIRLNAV
Put plainly: hSERT neurotransmitter uptake assay (3H-5-HT). It is filed as cell-based. As to conditions: 3H-5-HT 20 nM, HEK-293 hSERT cells; read-out: serotonin reuptake inhibition pIC50 (converted). The protocol:
as §1, §2, §3

Data set [7] has as its target T2, hSERT. The data set can be described thus: hSERT membrane radioligand binding assay (3H-citalopram). As to conditions: 1.0 nM 3H-citalopram, HEK-293 hSERT membranes; read-out: SERT pKi (converted). The protocol:
(§4) Membrane radioligand binding assays were used to measure inhibition of labeled ligand (^3H-citalopram or ^3H-nisoxetine or ^3H-WIN35428) binding to membranes prepared from cells expressing the respective human recombinant transporter (hSERT or hNET or hDAT) in order to determine the pKi values of test compounds at the transporters.
(§5) Recombinant human embryonic kidney (HEK-293) derived cell lines stably transfected with hSERT or hNET, respectively, were grown in Dulbecco's Modified Eagle's Medium (DMEM) medium supplemented with 10% dialyzed FBS (for hSERT) or FBS (for hNET), 100 μg/ml penicillin, 100 μg/ml streptomycin, 2 mM L-glutamine and 250 μg/ml of the aminoglycoside antibiotic G418, in a 5% CO2 humidified incubator at 37° C. When cultures reached 80% confluence, the cells were washed thoroughly in PBS (without Ca^2+ and Mg^2+) and lifted with 5 mM EDTA in PBS. […] Protein concentration of the membrane suspension was determined using a Bio-Rad Bradford Protein Assay kit. […]
(§6) Stock solutions (10 mM in DMSO) of test compound were prepared and serial dilutions made using Dilution Buffer (50 mM Tris-HCl, 120 mM NaCl, 5 mM KCl, pH 7.4, 0.1% BSA, 400 μM ascorbic acid). Non-specific radioligand binding was determined in the presence of 1 μM duloxetine, 1 μM desipramine or 10 μM GBR12909 (each in Dilution Buffer) for the hSERT, hNET or hDAT assays, respectively. […]

Data set [8] concerns the target T1, hNET. The data set can be described thus: hNET membrane radioligand binding assay (3H-nisoxetine). As to conditions: 1.0 nM 3H-nisoxetine, HEK-293 hNET membranes; read-out: NET pKi (converted). The method, then: as §4, §5, §6

T1 sequence (P23975 whole entry): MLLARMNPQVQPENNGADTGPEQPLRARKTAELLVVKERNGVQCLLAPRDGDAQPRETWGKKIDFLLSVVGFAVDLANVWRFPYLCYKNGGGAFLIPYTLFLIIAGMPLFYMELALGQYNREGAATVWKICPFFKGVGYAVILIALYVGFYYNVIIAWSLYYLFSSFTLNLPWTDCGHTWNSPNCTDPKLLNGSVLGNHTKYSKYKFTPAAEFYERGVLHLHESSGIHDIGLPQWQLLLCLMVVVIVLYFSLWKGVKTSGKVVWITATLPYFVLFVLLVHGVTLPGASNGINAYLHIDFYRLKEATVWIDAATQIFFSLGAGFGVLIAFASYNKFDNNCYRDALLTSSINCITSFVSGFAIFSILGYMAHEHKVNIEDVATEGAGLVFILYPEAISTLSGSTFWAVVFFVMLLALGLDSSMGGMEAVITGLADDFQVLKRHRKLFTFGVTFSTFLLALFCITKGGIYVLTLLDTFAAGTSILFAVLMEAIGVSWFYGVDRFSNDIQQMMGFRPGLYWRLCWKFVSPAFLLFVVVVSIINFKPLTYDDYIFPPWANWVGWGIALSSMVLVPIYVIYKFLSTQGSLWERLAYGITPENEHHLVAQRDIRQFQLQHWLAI

For `CC(C)[C@H](Oc1ccc(Cl)cc1)[C@H]1CCNC1` [Example 1, Crystalline Hydrochloride Salt of (S)-3-[(S)-1-(4-Chlorophenoxy)-2-methylpropyl]pyrrolidine], the deliquescence result in data set [1] was “not to be deliquescent”. Further, the solubility in the data set “Aqueous solubility” (aqueous HCl, simulated gastric fluid, HCl pH 2.0) was more than 10000 µg/mL; in the data set “Aqueous solubility” (phosphate buffer, aqueous buffer, 50 mM phosphate-buffered pH 7.4) it was more than 10000 µg/mL; in the data set “Aqueous solubility” (un-buffered water), more than 10000 µg/mL. For the same molecule, the “thermal stability (DSC)” value in [2] (heating 10° C./min from 22° C. to 250° C.) was “no significant thermal decomposition below about 200 °C”. In addition, in data set [2] (room temperature to 200° C.), the “weight loss (TGA)” value is on record as “did not lose any significant amount of weight”. Further, the “Change in HPLC Peak Area” value in data set [3] (50 mM citric acid pH 2.2) is listed as 100.5%; in data set [3] (50 mM phosphate-buffered pH 7.4), 100.0%. The “stability at room temperature” value in data set [3] (room temperature, 30 days, concentrations of 1 mg/mL and 10 mg/mL) is given as “no degradation”. The weight gain entry in data set [4] is “less than 1.0%”.

For `CC(C)[C@H](Oc1ccc(Cl)cc1)[C@H]1CCNC1` [Example 1 (TFA salt), (S)-3-[(S)-1-(4-Chlorophenoxy)-2-methylpropyl]pyrrolidine], the IC50 on hNET [5] and at hSERT [6] was not above 10 nM in each case. The Ki on hSERT [7] and on hNET [8] was not above 10 nM in each case.
